Test results from patent publication US12559461B2, “Antibiotic adjuvant compounds” (UNIVERSITY OF NOTRE DAME DU LAC, priority 2020, dated 2026).
Like-named read-outs stand apart in the source and are kept apart here.

Tests used:
Format in all cases: cell-based, Acinetobacter baumannii
AB5075 [1] = experiment: Broth microdilution MIC of compound alone (standalone toxicity)
Procedure, shortened: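 A. baumannii 5075 subcultured to 5×10^5 CFU/mL in cation-adjusted Mueller-Hinton broth; compound twofold serially diluted from 200 μM (DMSO stock) and incubated stationary at 37° C for 16 h. MIC taken as lowest concentration with no visible growth; duplicates, repeated at least twice.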

AB5075 [2] = experiment: Broth microdilution clarithromycin (CLR) potentiation and dose-response of adjuvant
Procedure, shortened: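 A. baumannii AB5075 at 5×10^5 CFU/mL in CAMHB with fixed adjuvant (DMSO ≤0.3%) and two-fold serially diluted clarithromycin or colistin, stationary 16 h at 37° C. MIC = lowest concentration without visible growth; fold reduction versus antibiotic alone. Dose-response used adjuvant at 0–30 μM.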

[3] = tested on: A. baumannii isolates (23 strains); experiment: Clarithromycin potentiation against AB isolates; conditions: adjuvant at 10 μM
Description: Broth microdilution method for antibiotic potentiation. Day cultures (6 h) of bacteria in CAMHB were subcultured to 5×10^5 CFU/mL in CAMHB. Aliquots (4 mL) were placed in culture tubes and dosed with compound from 10 mM stock samples to give the desired concentration of the compound to be tested against the particular bacterial strain; this insured non-toxic DMSO concentrations ≤0.3% in each well. 1 mL of the resulting solution was placed in a separate culture and dosed with antibiotic at the highest concentration to be tested. Bacteria treated with antibiotic alone served as the control. Row one of a 96-well plate was filled with 200 μL of the antibiotic/2-AI solution, and rows 2-12 were filled with 100 μL each of the remaining 4 mL of bacterial subculture containing adjuvant at the desired concentration, except for the control lane which contained only bacterial subculture. Row one was then mixed five times, and 100 μL was transferred to row two, which was then mixed five times before being transferred to row three. This process was repeated until all rows had been mixed, except for row twelve which would have only 2-AI to serve as a control to monitor potential toxicity. The 96-well plate was then covered in Glad Press n'Seal and incubated under stationary conditions at 37° C. for 16 h. MIC values were determined as the lowest concentration at which no bacterial growth was observed, and fold reductions were determined by comparison to antibiotic control lane.

[4] = tested on: A. baumannii isolates (23 strains); experiment: Minimum inhibitory concentration against AB isolates; conditions: Acinetobacter baumannii, compound alone
Description: Broth microdilution method for MIC determination. Day cultures (6 h) of each bacterial strain in cation adjusted Mueller Hinton II broth (CAMHB, Fisher Scientific U.S.) were subcultured to 5×10^5 CFU/mL in CAMHB. Aliquots (1 mL) were placed in culture tubes and compound was added from 10 mM stock samples in DMSO, such that compound concentration equaled highest concentration tested (200 μM). Samples were then aliquoted (200 μL) into the first wells of a 96-well plate, with all remaining wells being filled with 100 μL of initial bacterial subculture. Row one wells were mixed five times, before 100 μL was transferred to row two. Row two was then mixed five times, and 100 μL was transferred to row three. This process was repeated until the final row had been mixed; this served to serially dilute the compound. Plates were then covered with GLAD Press n'Seal and incubated under stationary conditions at 37° C. for 16 h. MIC values were then recorded as the lowest concentration at which no bacterial growth was observed.

Cl.Nc1nc(-c2ccc(NC(=O)c3ccc(Cl)c(Cl)c3)cc2F)c[nH]1 [Compound 15b, N-(4-(2-amino-1H-imidazol-4-yl)-3-fluorophenyl)-3,4-dichlorobenzamide hydrochloride]
50 µM: MIC ([4]; A. baumannii strain 3560, read-out: Minimum inhibitory concentration of compound) | MIC ([4]; A. baumannii strain 4456, read-out: Minimum inhibitory concentration of compound) | MIC ([4]; A. baumannii strain 4857, read-out: Minimum inhibitory concentration of compound) | MIC ([4]; three of the AB isolates, read-out: MIC values)
>200 µM: MIC (AB5075 [1]; hydrochloride)
0.5 µg/mL: CLR MIC (AB5075 [2]; compound tested at 10 μM) | CLR MIC (AB5075 [2]; compound tested at 20 μM) | CLR MIC (AB5075 [2]; compound tested at 30 μM) | CLR MIC + adjuvant ([3]; A. baumannii strain 3806)
100 µM: MIC ([4]; A. baumannii strain 4025, read-out: Minimum inhibitory concentration of compound) | MIC ([4]; A. baumannii strain 4026, read-out: Minimum inhibitory concentration of compound) | MIC ([4]; A. baumannii strain 4498, read-out: Minimum inhibitory concentration of compound) | MIC ([4]; A. baumannii strain 4795, read-out: Minimum inhibitory concentration of compound)
8 µg/mL: CLR MIC (AB5075 [2]; compound tested at 5 μM)
> 200 µM: MIC (AB5075 [1]; Acinetobacter baumannii) | MIC ([4]; A. baumannii strain 3927, read-out: Minimum inhibitory concentration of compound) | MIC ([4]; A. baumannii strain 4052, read-out: Minimum inhibitory concentration of compound) | MIC ([4]; A. baumannii strain 4269, read-out: Minimum inhibitory concentration of compound) | MIC ([4]; A. baumannii strain 4448, read-out: Minimum inhibitory concentration of compound) | MIC ([4]; A. baumannii strain 4490, read-out: Minimum inhibitory concentration of compound) | MIC ([4]; A. baumannii strain 4957, read-out: Minimum inhibitory concentration of compound) | MIC ([4]; A. baumannii strain 4991, read-out: Minimum inhibitory concentration of compound) | MIC ([4]; A. baumannii strain 5001, read-out: Minimum inhibitory concentration of compound) | MIC ([4]; A. baumannii strain 5197, read-out: Minimum inhibitory concentration of compound) | MIC ([4]; A. baumannii strain 5256, read-out: Minimum inhibitory concentration of compound) | MIC ([4]; A. baumannii strain 5711, read-out: Minimum inhibitory concentration of compound) | MIC ([4]; A. baumannii strain 8967, read-out: Minimum inhibitory concentration of compound)
2 µg/mL: CLR MIC + adjuvant ([3]; A. baumannii strain 3560) | CLR MIC + adjuvant ([3]; A. baumannii strain 3927) | CLR MIC + adjuvant ([3]; A. baumannii strain 4269) | CLR MIC + adjuvant ([3]; A. baumannii strain 4448) | CLR MIC + adjuvant ([3]; A. baumannii strain 4456) | CLR MIC + adjuvant ([3]; A. baumannii strain 4490) | CLR MIC + adjuvant ([3]; A. baumannii strain 4498) | CLR MIC + adjuvant ([3]; A. baumannii strain 4795) | CLR MIC + adjuvant ([3]; A. baumannii strain 4878) | CLR MIC + adjuvant ([3]; A. baumannii strain 4991) | CLR MIC + adjuvant ([3]; A. baumannii strain 5197)
32 fold: Fold Reduction of CLR MIC (AB5075 [2]; compound tested at 7.5 μM)
1 µg/mL: CLR MIC (AB5075 [2]; compound tested at 7.5 μM) | CLR MIC + adjuvant ([3]; A. baumannii strain 4025) | CLR MIC + adjuvant ([3]; A. baumannii strain 4027) | CLR MIC + adjuvant ([3]; A. baumannii strain 4052) | CLR MIC + adjuvant ([3]; A. baumannii strain 4857) | CLR MIC + adjuvant ([3]; A. baumannii strain 5256) | CLR MIC + adjuvant ([3]; A. baumannii strain 8967)
4 fold: Fold Reduction of CLR MIC (AB5075 [2]; compound tested at 5 μM)
≥ 100 µM: MIC ([4]; remaining 20 strains, read-out: MIC values)
200 µM: MIC ([4]; A. baumannii strain 3785, read-out: Minimum inhibitory concentration of compound) | MIC ([4]; A. baumannii strain 3806, read-out: Minimum inhibitory concentration of compound) | MIC ([4]; A. baumannii strain 4027, read-out: Minimum inhibitory concentration of compound) | MIC ([4]; A. baumannii strain 4878, read-out: Minimum inhibitory concentration of compound)
64 fold: Fold Reduction of CLR MIC (AB5075 [2]; compound tested at 10 μM) | Fold Reduction of CLR MIC (AB5075 [2]; compound tested at 20 μM) | Fold Reduction of CLR MIC (AB5075 [2]; compound tested at 30 μM)
4 µg/mL: CLR MIC + adjuvant ([3]; A. baumannii strain 3785) | CLR MIC + adjuvant ([3]; A. baumannii strain 4026) | CLR MIC + adjuvant ([3]; A. baumannii strain 4957) | CLR MIC + adjuvant ([3]; A. baumannii strain 5001) | CLR MIC + adjuvant ([3]; A. baumannii strain 5711)
